{
  "source": "patent US20080108665A1",
  "about": "“Use of N-substituted sulfoximines for control of invertebrate pests” (priority 2006, published 2008)",
  "format_in_all_cases": "in vivo",
  "key": {"[1]": {"tested_on": "Bird Cherry-Oat Aphid (Rhopalosiphum padi)", "assay": "Bird cherry-oat aphid seed coating assay on wheat", "conditions": "1.34 mg/seed, 10% SC formulation, 4 days after infestation", "protocol": "Twenty spring wheat (Triticum aestivum var. Yuma) seeds were placed on a waxed paper. A pipette was used to apply a 10% SC formulation of the test compound to each seed. Two application of 6.7 μl each were applied to a seed, waiting until the seed was air-dried between applications. The total amount of active ingredient applied to each seed was 1.34 mg. All coated seeds are planted into 3 inch pots containing greenhouse metro mix, with 4 seeds used in each pot. An appropriate number of untreated seeds was also planted for control. The pots are placed on a California cart and moved into a greenhouse for initial and subsequent sub-watering. When the plants had germinated and grown to the 1-2 leaf unfurled stage, they were infested with bird cherry-oat aphid. The infested plants were held in an environmental chamber (23° C., 40% RH, 16 hr light: 8 hr dark) for 4 days before an assessment of aphid populations was conducted. Calculations for % Control are based on a corrected basis compared to the populations on the untreated controls.\nCorrected % Control=100*(X−Y)/X • where X=No. of live aphids on untreated plants • Y=No. of live aphids on treated plants"}, "[2]": {"tested_on": "Brown Dog Tick (Rhipicephalus sanguineus)", "assay": "Brown dog tick glass plate assay", "conditions": "48-hour exposure, mean", "protocol": "Compound (2) was evaluated in a dose response series to establish the range of activity of the test compound. Technical material was dissolved in acetone and diluted with the same solvent to obtain the test concentrations. Tick bioassays were conducted by applying 1.0 ml of the test substance to clean dry glass plates confined by 10 cm grease pencil circles drawn on the plates and spread evenly with an acid brush. The plates were allowed to dry for at least 1 hour before adult ticks were confined to the treated substrate using 10 cm Petri dish lids. Each treatment was replicated 5 times. Approximately 5 adult ticks were placed into each replicate. Mortality was assessed at 2, 8, 24 and 48 hours after introduction of the ticks into the test system. The mean percent mortality for each dosage group and time interval was determined and results from the 48-hour observation are presented in Table 9."}, "[3]": {"tested_on": "Eastern Subterranean Termite (Reticulitermes flavipes)", "assay": "Eastern subterranean termite filter paper assay", "protocol": "Activity of Compound (2) was evaluated for its activity on Eastern subterranean termite. Technical material of the test compound was formulated in acetone on a wt/wt basis to deliver 1000, 500, 200, 50, 12.5, 3.12 and 0.78 ppm to 42.5 mm Whatman No. 1 filter papers per 200 ul of pipetted solution. Each test concentration was applied to six filter papers (6 reps). Six acetone-only control units and six DI water-only control units were also prepared. The filter papers were dried overnight in the fume hood before they were placed into 60×15 mm Fisher Brand plastic Petri dishes. A volume of 200 ul DI water was pipetted onto each Filter paper at the time of test set-up, just prior to infesting with termites. Ten worker termites were added to each Petri dish and covered. The infested Petri dishes were put in the laboratory Conviron at 28° C. and 60% RH. Termite mortality was recorded at 1, 2, 4, 7, and 10 days after infestation (DAI). Throughout the duration of the test, an average of 150 ul of DI water was added daily to the filter papers to retain moisture."}, "[4]": {"tested_on": "Cat Flea (Ctenocephalides felis)", "assay": "Cat flea filter wool assay", "conditions": "48-hour exposure, mean", "protocol": "Compound (2) was evaluated in a dose response series to establish the range of activity of the test compound. Technical material was dissolved in acetone and diluted with the same solvent to obtain the test concentrations. Bioassays were conducted by treating polyester aquarium filter wool with 1.0 ml of the test solution, thoroughly saturating the substrate and allowing it to dry for at least 1 hour. The dry filter wool was then placed into 10 cm plastic Petri dishes and covered with the lid. Each treatment was replicated 5 times. Approximately 15 unfed cat flea adults were placed into each replicate of each dosage being evaluated. Mortality was assessed at 2, 8, 24 and 48 hours after introduction of the fleas into the test system. The mean percent mortality for each dosage group and time interval was determined and results from the 48-hour observation are presented in Table 8."}},
  "data": [
    {"smiles": "CC(c1ccc(Cl)nc1)S(C)(=O)=NC#N", "note": "(centres unmarked) [Compound 2, [1-(6-chloropyridin-3-yl)ethyl](methyl)oxido-λ^4-sulfanylidenecyanamide]", "values": [
      {"measurement": "% Control, seed coating systemic", "setting": "[1]", "value": 100, "unit": "%"},
      {"measurement": "mortality at 5 ppm", "setting": "[2]; 5.0 ppm", "value": 52, "unit": "%"},
      {"measurement": "mortality at 50 ppm", "setting": "[2]; 50.0 ppm", "value": 56, "unit": "%"},
      {"measurement": "mortality at 500 ppm", "setting": "[2]; 500.0 ppm", "value": 84, "unit": "%"},
      {"measurement": "mortality at 0.78 ppm", "setting": "[3]; 1 DAI", "value": 0, "unit": "%"},
      {"measurement": "mortality at 0.78 ppm", "setting": "[3]; 2 DAI", "value": 2, "unit": "%"},
      {"measurement": "mortality at 0.78 ppm", "setting": "[3]; 4 DAI", "value": 2, "unit": "%"},
      {"measurement": "mortality at 0.78 ppm", "setting": "[3]; 7 DAI", "value": 7, "unit": "%"},
      {"measurement": "mortality at 0.78 ppm", "setting": "[3]; 10 DAI", "value": 10, "unit": "%"},
      {"measurement": "mortality at 3.13 ppm", "setting": "[3]; 1 DAI", "value": 0, "unit": "%"},
      {"measurement": "mortality at 3.13 ppm", "setting": "[3]; 2 DAI", "value": 3, "unit": "%"},
      {"measurement": "mortality at 3.13 ppm", "setting": "[3]; 4 DAI", "value": 43, "unit": "%"},
      {"measurement": "mortality at 3.13 ppm", "setting": "[3]; 7 DAI", "value": 60, "unit": "%"},
      {"measurement": "mortality at 3.13 ppm", "setting": "[3]; 10 DAI", "value": 60, "unit": "%"},
      {"measurement": "mortality at 12.5 ppm", "setting": "[3]; 1 DAI", "value": 15, "unit": "%"},
      {"measurement": "mortality at 12.5 ppm", "setting": "[3]; 2 DAI", "value": 32, "unit": "%"},
      {"measurement": "mortality at 12.5 ppm", "setting": "[3]; 4 DAI", "value": 60, "unit": "%"},
      {"measurement": "mortality at 12.5 ppm", "setting": "[3]; 7 DAI", "value": 63, "unit": "%"},
      {"measurement": "mortality at 12.5 ppm", "setting": "[3]; 10 DAI", "value": 63, "unit": "%"},
      {"measurement": "mortality at 50 ppm", "setting": "[3]; 1 DAI", "value": 15, "unit": "%"},
      {"measurement": "mortality at 50 ppm", "setting": "[3]; 2 DAI", "value": 27, "unit": "%"},
      {"measurement": "mortality at 50 ppm", "setting": "[3]; 4 DAI", "value": 67, "unit": "%"},
      {"measurement": "mortality at 50 ppm", "setting": "[3]; 7 DAI", "value": 92, "unit": "%"},
      {"measurement": "mortality at 50 ppm", "setting": "[3]; 10 DAI", "value": 93, "unit": "%"},
      {"measurement": "mortality at 200 ppm", "setting": "[3]; 1 DAI", "value": 37, "unit": "%"},
      {"measurement": "mortality at 200 ppm", "setting": "[3]; 2 DAI", "value": 58, "unit": "%"},
      {"measurement": "mortality at 200 ppm", "setting": "[3]; 4 DAI", "value": 87, "unit": "%"},
      {"measurement": "mortality at 200 ppm", "setting": "[3]; 7 DAI", "value": 97, "unit": "%"},
      {"measurement": "mortality at 200 ppm", "setting": "[3]; 10 DAI", "value": 100, "unit": "%"},
      {"measurement": "mortality at 500 ppm", "setting": "[3]; 1 DAI", "value": 38, "unit": "%"},
      {"measurement": "mortality at 500 ppm", "setting": "[3]; 2 DAI", "value": 60, "unit": "%"},
      {"measurement": "mortality at 500 ppm", "setting": "[3]; 4 DAI", "value": 93, "unit": "%"},
      {"measurement": "mortality at 500 ppm", "setting": "[3]; 7 DAI", "value": 100, "unit": "%"},
      {"measurement": "mortality at 500 ppm", "setting": "[3]; 10 DAI", "value": 100, "unit": "%"},
      {"measurement": "mortality at 1000 ppm", "setting": "[3]; 1 DAI", "value": 47, "unit": "%"},
      {"measurement": "mortality at 1000 ppm", "setting": "[3]; 2 DAI", "value": 68, "unit": "%"},
      {"measurement": "mortality at 1000 ppm", "setting": "[3]; 4 DAI", "value": 92, "unit": "%"},
      {"measurement": "mortality at 1000 ppm", "setting": "[3]; 7 DAI", "value": 100, "unit": "%"},
      {"measurement": "mortality at 1000 ppm", "setting": "[3]; 10 DAI", "value": 100, "unit": "%"},
      {"measurement": "% Flea mortality", "setting": "[4]; 5,000.0 ppm", "value": 100, "unit": "%"},
      {"measurement": "mortality at 0.5 ppm", "setting": "[4]; Ctenocephalides felis, 0.5 ppm", "value": 52.4, "unit": "%"},
      {"measurement": "mortality at 5 ppm", "setting": "[4]; Ctenocephalides felis, 5.0 ppm", "value": 74.4, "unit": "%"},
      {"measurement": "mortality at 50 ppm", "setting": "[4]; Ctenocephalides felis, 50.0 ppm", "value": 76.6, "unit": "%"},
      {"measurement": "mortality at 500 ppm", "setting": "[4]; Ctenocephalides felis, 500.0 ppm", "value": 83.8, "unit": "%"}
    ]}
  ]
}
